Results published in US10968210B2, “Diamino-alkylamino-linked arylsulfonamide compounds with selective activity in voltage-gated sodium channels” (Merck Sharp & Dohme Corp., priority 2016, dated 2021).

Tests used:
[1] = target: T1, human Nav 1.5 channels stably expressed in HEK 293 cells (Homo sapiens, UniProt Q14524); test: IonWorks Quattro automated patch-clamp, inactivated state block of Nav 1.5 (reported as ratio to Nav 1.7 potency); assay type: cell-based; details: selectivity for Nav 1.7 over Nav 1.5, both by IonWorks
T1 construct: expressed in transfected cells; host or cells: HEK 293
T1 sequence (Q14524 whole entry): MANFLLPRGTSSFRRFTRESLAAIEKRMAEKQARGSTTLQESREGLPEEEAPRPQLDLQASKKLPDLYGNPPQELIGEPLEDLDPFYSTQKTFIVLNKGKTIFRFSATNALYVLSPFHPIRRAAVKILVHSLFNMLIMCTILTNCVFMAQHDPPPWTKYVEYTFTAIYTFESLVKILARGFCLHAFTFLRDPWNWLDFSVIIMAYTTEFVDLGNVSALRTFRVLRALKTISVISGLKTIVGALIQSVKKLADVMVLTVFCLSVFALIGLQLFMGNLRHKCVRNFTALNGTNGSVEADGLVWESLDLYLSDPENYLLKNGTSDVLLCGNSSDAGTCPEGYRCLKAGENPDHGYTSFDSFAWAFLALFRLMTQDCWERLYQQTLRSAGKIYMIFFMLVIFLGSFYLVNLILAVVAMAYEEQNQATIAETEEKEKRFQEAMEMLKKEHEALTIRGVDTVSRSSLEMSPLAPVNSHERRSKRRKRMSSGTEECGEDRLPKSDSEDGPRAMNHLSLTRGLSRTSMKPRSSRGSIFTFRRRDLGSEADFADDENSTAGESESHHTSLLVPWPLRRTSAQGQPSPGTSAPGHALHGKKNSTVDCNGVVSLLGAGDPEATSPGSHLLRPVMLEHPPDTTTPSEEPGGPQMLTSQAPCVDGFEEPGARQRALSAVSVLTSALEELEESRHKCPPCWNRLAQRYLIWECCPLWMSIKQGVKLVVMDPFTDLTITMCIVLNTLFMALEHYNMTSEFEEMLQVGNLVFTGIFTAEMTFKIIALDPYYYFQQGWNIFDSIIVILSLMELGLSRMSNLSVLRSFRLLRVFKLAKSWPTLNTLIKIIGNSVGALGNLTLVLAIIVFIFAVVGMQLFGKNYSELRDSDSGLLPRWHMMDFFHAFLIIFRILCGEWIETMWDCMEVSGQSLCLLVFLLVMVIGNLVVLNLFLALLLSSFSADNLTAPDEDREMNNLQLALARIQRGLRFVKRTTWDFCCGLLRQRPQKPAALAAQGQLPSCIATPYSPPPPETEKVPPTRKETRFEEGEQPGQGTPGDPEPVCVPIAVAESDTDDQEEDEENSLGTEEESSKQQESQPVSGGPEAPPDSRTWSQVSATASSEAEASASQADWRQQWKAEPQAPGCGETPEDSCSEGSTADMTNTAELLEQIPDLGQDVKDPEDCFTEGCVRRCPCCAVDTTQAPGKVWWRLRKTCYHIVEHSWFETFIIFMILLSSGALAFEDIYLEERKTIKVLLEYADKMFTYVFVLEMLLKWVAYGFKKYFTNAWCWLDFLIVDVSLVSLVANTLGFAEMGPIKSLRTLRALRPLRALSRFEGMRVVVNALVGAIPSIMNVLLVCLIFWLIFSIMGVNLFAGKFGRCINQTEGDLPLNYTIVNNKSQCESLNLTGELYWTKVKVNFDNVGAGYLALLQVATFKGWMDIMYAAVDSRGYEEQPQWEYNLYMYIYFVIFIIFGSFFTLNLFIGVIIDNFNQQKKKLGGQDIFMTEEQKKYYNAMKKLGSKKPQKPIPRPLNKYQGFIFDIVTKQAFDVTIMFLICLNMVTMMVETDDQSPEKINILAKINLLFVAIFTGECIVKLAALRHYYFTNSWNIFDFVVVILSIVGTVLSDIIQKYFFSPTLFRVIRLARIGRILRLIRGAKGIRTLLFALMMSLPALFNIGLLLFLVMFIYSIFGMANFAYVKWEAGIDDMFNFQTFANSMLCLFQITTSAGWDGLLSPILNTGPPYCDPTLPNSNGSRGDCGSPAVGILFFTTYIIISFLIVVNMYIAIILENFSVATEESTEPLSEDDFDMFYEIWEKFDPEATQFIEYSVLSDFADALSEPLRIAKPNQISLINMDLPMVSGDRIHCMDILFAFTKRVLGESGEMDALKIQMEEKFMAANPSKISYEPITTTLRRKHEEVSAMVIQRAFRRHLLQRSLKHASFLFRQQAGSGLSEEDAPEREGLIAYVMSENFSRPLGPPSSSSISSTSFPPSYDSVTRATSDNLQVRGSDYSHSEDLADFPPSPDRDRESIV
Protocol: IonWorks® Experimental Procedure
Compounds were tested on human Nav 1.7 and Nav 1.5 channels stably expressed in HEK 293 cells. Sodium current measurements on IonWorks Quattro: An automated patch-clamp assay on the IonWorks Quattro platform (Molecular Devices) was used to measure state-dependent inhibition of human Nav 1.7 and Nav 1.5 channels. Cells were sealed on a planar substrate using the Population Patch Plate (PPC) technology. Electrical access was obtained using both nystatin and amphotericin. A double-pulse protocol was used for the determination of IC50 values for inactivated state block. Nav 1.7 and Nav 1.5 expressing cells were voltage clamped at −100 mV and −110 mV, respectively. A depolarizing prepulse to −10 mV (Nav 1.7) or −30 mV (Nav 1.5) for 1000 ms followed by a 10 ms repolarization to ˜100 mV (Nav1.7) or −110 mV (Nav 1.5) was given to generate fractional channel inactivation of ˜50%, followed by a 10 ms test pulse to −10 mV (Nav 1.7) or −30 mV (Nav 1.5) to measure peak current in control conditions and after compound addition. The following recording solutions were used (mM). External: 150 NaCl, 2 CaCl2, 5 KCl, 1 Mg Cl2, 10 HEPES, 12 Dextrose; internal: 120 CsF, 30 CsCl, 10 EGTA, 5 HEPES, 5 NaF, 2 MgCl2.
For all electrophysiology experiments, offline analysis was used to determine percent inhibition as a function of drug concentration. IC50 values were determined by fitting to the Hill equation.
The various compounds in Examples 1 through 4 and Tables 1 through 3 exemplified above were assayed for activity and selectivity using the foregoing IonWorks® technique. The results are reported in the following paragraph in a format expressing the identification of the compound with reference Example and compound (e.g. Ex 1-9 is Example 1, compound 9) followed by the observed potency in nM and the ratio of Nav1.7 potency: Nav1.5 potency as described here. Thus, Ex1-9: 1.7=65/ratio=641 identifies compound Example 1, compound 9 as having 65 nM potency for the Nav 1.7 sodium ion channel (as measured by IonWorks®) and a ratio of 641 Nav 1.7: Nav 1.5 potency, determined by IonWorks® measurement.

[2] = target: T2, human Nav 1.7 channels stably expressed in HEK 293 cells (Homo sapiens, UniProt Q15858); test: IonWorks Quattro automated patch-clamp, inactivated state block of Nav 1.7; assay type: cell-based; details: double-pulse protocol, HEK 293 cells held at -100 mV, read-out: potency for the Nav 1.7 sodium ion channel (IC50, IonWorks)
T2 construct: expressed in transfected cells; host or cells: HEK 293
T2 sequence (Q15858 whole entry): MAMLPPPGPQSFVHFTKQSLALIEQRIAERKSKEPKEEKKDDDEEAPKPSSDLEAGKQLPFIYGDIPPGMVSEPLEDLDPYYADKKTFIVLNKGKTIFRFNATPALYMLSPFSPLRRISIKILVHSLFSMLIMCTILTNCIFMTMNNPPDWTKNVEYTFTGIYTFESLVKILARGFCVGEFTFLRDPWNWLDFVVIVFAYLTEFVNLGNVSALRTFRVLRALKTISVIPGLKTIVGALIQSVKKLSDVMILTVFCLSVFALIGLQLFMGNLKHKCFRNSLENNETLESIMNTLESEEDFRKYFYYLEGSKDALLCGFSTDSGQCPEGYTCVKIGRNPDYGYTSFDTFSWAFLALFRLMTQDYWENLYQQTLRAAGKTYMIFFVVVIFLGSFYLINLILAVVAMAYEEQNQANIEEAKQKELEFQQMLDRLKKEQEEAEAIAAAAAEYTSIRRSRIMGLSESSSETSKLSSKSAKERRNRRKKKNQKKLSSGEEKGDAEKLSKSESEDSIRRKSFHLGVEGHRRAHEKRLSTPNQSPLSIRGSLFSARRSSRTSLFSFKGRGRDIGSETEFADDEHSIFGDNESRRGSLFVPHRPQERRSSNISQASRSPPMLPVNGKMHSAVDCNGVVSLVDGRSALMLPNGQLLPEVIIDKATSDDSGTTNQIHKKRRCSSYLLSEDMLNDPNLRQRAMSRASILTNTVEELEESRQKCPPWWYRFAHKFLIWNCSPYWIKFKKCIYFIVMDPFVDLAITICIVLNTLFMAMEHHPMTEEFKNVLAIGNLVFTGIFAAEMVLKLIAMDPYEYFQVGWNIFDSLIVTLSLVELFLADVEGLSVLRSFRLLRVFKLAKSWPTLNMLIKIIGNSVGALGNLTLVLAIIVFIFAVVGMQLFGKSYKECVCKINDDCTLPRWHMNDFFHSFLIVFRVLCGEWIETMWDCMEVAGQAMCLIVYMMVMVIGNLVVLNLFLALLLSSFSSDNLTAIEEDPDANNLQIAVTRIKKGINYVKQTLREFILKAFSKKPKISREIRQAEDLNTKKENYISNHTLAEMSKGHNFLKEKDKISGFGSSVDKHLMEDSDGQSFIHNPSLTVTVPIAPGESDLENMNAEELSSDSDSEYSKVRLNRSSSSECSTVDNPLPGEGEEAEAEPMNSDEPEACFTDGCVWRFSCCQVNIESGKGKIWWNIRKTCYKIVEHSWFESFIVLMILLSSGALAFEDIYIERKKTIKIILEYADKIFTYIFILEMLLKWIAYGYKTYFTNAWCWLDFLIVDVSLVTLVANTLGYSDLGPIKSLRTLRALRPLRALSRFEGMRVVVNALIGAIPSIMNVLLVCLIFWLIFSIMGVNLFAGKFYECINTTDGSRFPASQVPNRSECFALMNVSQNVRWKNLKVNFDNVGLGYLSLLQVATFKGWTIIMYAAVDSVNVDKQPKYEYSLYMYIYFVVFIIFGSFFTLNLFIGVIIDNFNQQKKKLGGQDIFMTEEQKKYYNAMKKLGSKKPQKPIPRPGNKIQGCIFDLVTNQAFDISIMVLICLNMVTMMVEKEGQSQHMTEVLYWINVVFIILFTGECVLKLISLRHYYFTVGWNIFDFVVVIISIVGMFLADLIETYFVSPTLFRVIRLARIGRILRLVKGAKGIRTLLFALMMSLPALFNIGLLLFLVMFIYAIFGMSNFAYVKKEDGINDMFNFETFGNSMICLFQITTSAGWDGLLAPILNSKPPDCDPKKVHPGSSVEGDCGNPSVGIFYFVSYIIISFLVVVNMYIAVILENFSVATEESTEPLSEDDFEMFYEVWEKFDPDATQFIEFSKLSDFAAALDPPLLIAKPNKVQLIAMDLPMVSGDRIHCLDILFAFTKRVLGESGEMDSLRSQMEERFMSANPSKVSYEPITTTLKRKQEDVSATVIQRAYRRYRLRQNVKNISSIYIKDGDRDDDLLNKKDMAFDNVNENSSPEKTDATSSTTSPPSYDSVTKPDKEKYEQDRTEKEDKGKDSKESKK
Method in brief: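 Inactivated-state block was recorded by automated perforated patch (nystatin plus amphotericin) using a double-pulse protocol. Holding was −100 mV (Nav1.7) or −110 mV (Nav1.5), with a 1000 ms prepulse to −10/−30 mV giving ~50% inactivation, then a 10 ms test pulse. IC50s came from Hill fits of peak current inhibition.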

SMILES | IC50 [2] [nM] | ratio of Nav 1.7 : Nav 1.5 potency (IonWorks) [1]
O=S(=O)(Nc1nccs1)c1cc(Cl)c(NCCCCCNCC2CCCNC2)cc1F (centres unmarked) [Ex 9-04, 5-chloro-2-fluoro-4-({5-[(piperidin-3-ylmethyl)-amino]-pentyl}amino)-N-1,3-thiazol-2-yl-benzenesulfonamide] | 25 | > 1320
C[C@@H](N)CNCCCCCNc1cc(F)c(S(=O)(=O)Nc2nccs2)cc1Cl [Ex 9-05, 4-[(5-{[(2R)-2-aminopropyl]-amino}penty)amino]-5-chloro-2-fluoro-N-1,3-thiazol-2-yl-benzenesulfonamide] | 79 | > 420
O=S(=O)(Nc1nccs1)c1cc(Cl)c(NCCCCCNCC2CCN2)cc1F (centres unmarked) [Ex 9-06, 4-({5-[(azetidin-2-ylmethyl)amino]-pentyl}amino)-5-chloro-2-fluoro-N-1,3-thiazol-2-yl-benzenesulfonamide] | 200 | > 160
O=S(=O)(Nc1nccs1)c1cc(Cl)c(NCC(CCNC[C@@H]2CCCN2)c2ccccc2)cc1F (stereo partly drawn) [Ex 10-3, 5-chloro-2-fluoro-4-((2-phenyl-4-(((S)-pyrrolidin-2-ylmethyl)amino)butyl)amino)-N-(thiazol-2-yl)benzenesulfonamide] | 78 | > 423

Second part, led by results:

IC50 [2] [nM] | SMILES | ratio of Nav 1.7 : Nav 1.5 potency (IonWorks) [1]
20 | NC[C@H]1CCN1CCCCNc1cc(F)c(S(=O)(=O)Nc2ncns2)cc1Cl [Ex 16-02, 4-({4-[(2R)-2-(aminomethyl)-azetidin-1-yl]butyl}amino)-5-chloro-2-fluoro-N-1,2,4-thiadiazol-5-yl-benzene-sulfonamide] | > 1650
14 | CN[C@@H]1CCN(CCCCNc2cc(F)c(S(=O)(=O)Nc3ncns3)cc2Cl)C1 [Ex 16-03, 5-chloro-2-fluoro-4-({4-[(3R)-3-(methylamino)pyrrolidin-1-yl]-butyl}-amino)-N-1,2,4-thiadiazol-5-ylbenzene-sulfonamide] | 1930
1.9 | O=S(=O)(Nc1ncc(F)s1)c1cc(Cl)c(NCCCCNCCNC2C3CC4CC(C3)CC2C4)cc1F (centres unmarked) [Ex 16-07, 5-chloro-2-fluoro-N-(5-fluoro-1,3-thiazol-2-yl)-4-[(4-{[2-(tricyclo[3.3.1.1~3,7~]dec-2-yl-amino)-ethyl]amino}butyl)-amino]-benzene-sulfonamide] | > 17400
15 | NC[C@@H]1CCN1CCCCNc1cc(F)c(S(=O)(=O)Nc2ncc(F)s2)cc1Cl [Ex 16-11, 4-({4-[(2S)-2-(aminomethyl)azetidin-1-yl]-butyl}amino)-5-chloro-2-fluoro-N-(5-fluoro-1,3-thiazol-2-yl)-benzene-sulfonamide] | > 1530
14 | O=S(=O)(Nc1ncc(F)s1)c1cc(Cl)c(NCCCCN2C[C@H]3CCCN[C@H]3C2)cc1F [Ex 16-23, 5-chloro-2-fluoro-N-(5-fluoro-1,3-thiazol-2-yl)-4-({4-[(4aR,7aR)-octahydro-6H-pyrrolo[3,4-b]pyridin-6-yl]butyl}amino)benzene-sulfonamide] | > 2357
36 | N#Cc1cc(S(=O)(=O)Nc2nccs2)c(F)cc1NCCCCN[C@@H]1CCNC1 [Ex 16-39, 5-cyano-2-fluoro-4-({4-[(3R)-pyrrolidin-3-ylamino]-butyl}amino)-N-1,3-thiazol-2-yl-benzenesulfonamide] | > 917
34 | NCC(F)CNCCCCNc1cc(F)c(S(=O)(=O)Nc2ncc(F)s2)cc1Cl (centres unmarked) [Ex 16-46, 4-({4-[(3-amino-2-fluoro-propyl)amino]butyl}amino)-5-chloro-2-fluoro-N-(5-fluoro-1,3-thiazol-2-yl)-benzenesulfonamide] | > 970
74 | CNCCNCCCCNc1cc(F)c(S(=O)(=O)Nc2ncns2)cc1F [Ex 16-47, 2,5-difluoro-4-[(4-{[2-(methylamino)ethyl]amino}-butyl)amino]-N-1,2,4-thiadiazol-5-ylbenzene-sulfonamide] | > 460
35 | CNCCNCCCCNc1cc(F)c(S(=O)(=O)Nc2nc(C)cs2)cc1Cl [Ex 16-51, 5-chloro-2-fluoro-4-[(4-{[2-(methylamino)ethyl]amino}-butyl)amino]-N-(4-methyl-1,3-thiazol-2-yl)benzene-sulfonamide] | > 943
